Laboratory results: US10806730B2, “Methods of treating cancer with farnesyltransferase inhibitors” (Kura Oncology, Inc., priority 2017, dated 2020)

How the values were obtained:
Assay type in all cases: in vivo, human
[1] = tested on: higher risk MDS/CMML subjects; assay: Clinical study of tipifarnib (INT-28) in higher risk MDS/CMML
Description: A clinical study of tipifarnib (300 mg bid (twice daily), 3 weeks on/1 week off) was conducted in 82 higher risk MDS/CMML subjects. 67 subjects were transfusion dependent (TD) at study entry, whereby a subject receiving one or several red blood cell (RBC) transfusions during screening and up to the first administration of tipifarnib was classified as TD.
30/67 (45%) MDS subjects were initially classified as having moderate to severe neutropenia, based on their absolute neutrophil count (ANC) of <1,000 cells/μl blood prior to receiving tipifarnib. The ANC of the remaining 37/67 (55%) MDS subjects was ≥1,000 cells/μl blood. 9/30 (30%) MDS subjects with moderate to severe neutropenia and 2/37 (5%) MDS subjects without moderate to severe neutropenia converted to transfusion independence during the tipifarnib study. […] The majority of the subjects that developed transfusion independence were of intermediate (INT) risk of developing AML.

[2] = tested on: elderly patients with newly diagnosed, de novo, or secondary AML; assay: Ph3 study AML301, tipifarnib vs BSC
Description: (§1) Clinical studies with tipifarnib were performed in newly diagnosed elderly patients with poor risk AML (CTEP-20, Phase 2) and relapsed and refractory AML (INT-17, Phase 2). Patient selection in these studies was not based on genetic markers. Anecdotal evidence of tipifarnib single agent activity was reported. […] Median OS in the overall study was 107 days for the Tipifarnib group and 109 days for the BSC group in AML301.

[3] = tested on: newly diagnosed elderly patients with poor risk AML; assay: CTEP-20 Phase 2 tipifarnib study
Description: as §1

[4] = tested on: relapsed and refractory AML; assay: INT-17 Phase 2 tipifarnib study
Description: as §1

[5] = 34 study subjects with outcome and expression data
[6] = CXCR4/CXCR2 expression ratio quartiles 1st-3rd
[7] = bone marrow CXCR4/CXCR2 expression ratio in the upper quartile

Cn1cncc1[C@@](N)(c1ccc(Cl)cc1)c1ccc2c(c1)c(-c1cccc(Cl)c1)cc(=O)n2C [tipifarnib]
conversion to transfusion independence (TI) ([1]; 67 transfusion dependent (TD) subjects, 300 mg bid, 3 weeks on/1 week off): 16%
conversion to transfusion independence ([1]; MDS subjects with neutropenia and high peripheral blast cell count >1%): 11%
conversion to transfusion independence ([1]; MDS subjects with neutropenia and low peripheral blast cell count ≤1%): 38%
conversion to transfusion independence ([1]; TD MDS subjects with moderate to severe neutropenia (ANC <1,000 cells/μl)): 30%
conversion to transfusion independence ([1]; TD MDS subjects without moderate to severe neutropenia (ANC ≥1,000 cells/μl)): 5%
persistence of RBC and platelet transfusion independence ([1]; exemplary MDS subject, ANC at screening=400 cells/μl, 300 mg bid, 3 weeks on/1 week off): 308 days
hazard ratio, tipifarnib vs reference therapy ([2]; ANC/WBC<0.3 and marrow blasts>60%, N=110, P=0.08): 0.67
Median survival ([2]; ANC/WBC<0.4, WBC>2, platelets>20, N=135): 146 days
hazard ratio, tipifarnib vs BSC ([2]; ANC/WBC<0.4, WBC>2, platelets>20, N=135, P=0.046): 0.7
median progression free survival (PFS) ([2]; BMR<0.1 prior to treatment, N=73): 83 days
median PFS ([2]; BMR≥0.1 prior to treatment, N=140): 60 days
Median OS ([2]; overall study): 107 days
Hazards ratio, Tipifarnib compared with BSC ([2]; overall study, N=457, non significant): 1.02
Median survival ([2]; subset with high BM blasts (>40%) and low peripheral blasts (<10%), N=82): 201 days
HR, tipifarnib vs BSC ([2]; subset with high BM blasts (>40%) and low peripheral blasts (<10%), N=82, P=0.019): 0.58
Median overall PFS [3, 5]: 84 days
Median overall survival [3, 5]: 233 days
median progression free survival (PFS) ([3]; BMR<0.1 prior to treatment, N=57): 93 days
median PFS ([3]; BMR≥0.1 prior to treatment, N=84): 47 days
Median survival (FIG. 7A, PFS probabilities) [3, 6]: 67 days
Median survival (FIG. 7B) [3, 6]: 179 days
HR (FIG. 7B, survival), upper quartile vs quartiles 1st-3rd ([3]; CXCR4/CXCR2 expression ratio, p=0.07): 0.26
HR (FIG. 7A, PFS), upper quartile vs quartiles 1st-3rd ([3]; CXCR4/CXCR2 expression ratio, p=0.09): 0.44
Median survival (FIG. 7A, PFS probabilities) [3, 7]: 406 days
Median survival (FIG. 7B) [3, 7]: 728 days
overall survival ([4]; 57 subjects with CXCR4/CXCR2 ratio data): 87 days
median PFS ([4]; AML subjects overexpressing CXCR4, N=8): 143 days
median PFS ([4]; AML subjects with relatively lower levels of CXCR4 expression, N=49): 29 days
Median survival ([4]; CXCR4/CXCR2 quintile group 1): 56 days
Median survival ([4]; CXCR4/CXCR2 quintile group 2): 78 days
Median survival ([4]; CXCR4/CXCR2 quintile group 3): 44 days
Median survival ([4]; CXCR4/CXCR2 quintile group 4): 105 days
Median survival ([4]; CXCR4/CXCR2 quintile group 5): 182 days
HR, 5th quintile of CXCR4/CXCR2 ratio vs rest ([4]; p=0.04): 0.52
Median survival ([4]; rest of the subjects (not 5th quintile of CXCR4/CXCR2 ratio)): 74 days
